{"source": "patent US20260215428A1", "about": "“WEED CONTROL METHOD” (SYNGENTA CROP PROTECTION AG, priority 2023, published 2026)", "assay_type_in_all_cases": "in vivo", "key": {"Setaria viridis": {"test_system": "Setaria viridis", "assay": "Glasshouse post-emergence test, visual damage, Table B1-5", "details": "14 days after application", "description": "Seeds of a variety of test species are sown in standard soil in pots. For each treatment, three replicate pots containing 10-15 plants per one-inch pot were sprayed at the 2-3 leaf stage. Clethodim and Compound (Ic) were each applied at 15, 30, 60 and 120 g ai/ha. The test plants are then grown in a glasshouse under controlled conditions in a glasshouse (at 24/16° C., day/night; 14 hours light; 65% humidity) and watered twice daily. Plants were assessed for visual damage compared to the untreated control 14 days after application (0=0% damage; 100=100% damage)."}, "Lolium multiflorum [1]": {"test_system": "Lolium multiflorum", "assay": "Glasshouse post-emergence test, visual damage, Table B1-1", "description": "Seeds of a variety of test species are sown in standard soil in pots. For each treatment, three replicate pots containing 10-15 plants per one-inch pot were sprayed at the 2-3 leaf stage. Clethodim and Compound (Ic) were each applied at 15, 30, 60 and 120 g ai/ha. The test plants are then grown in a glasshouse under controlled conditions in a glasshouse (at 24/16° C., day/night; 14 hours light; 65% humidity) and watered twice daily. […]"}, "Lolium multiflorum [2]": {"test_system": "Lolium multiflorum", "assay": "Further glasshouse test versus other ACCase-inhibiting herbicides, Table B2-1", "details": "21 days after application"}}}
{"smiles": "CCSC(C)CC1CC(=O)C(/C(CC)=N/OC/C=C/Cl)=C(O)C1", "note": "(stereo not drawn) [Clethodim, clethodim]", "values": [{"measurement": "visual damage", "setting": "Setaria viridis; biotype GG2078 (homozygous), 15 g/ha", "value": 30, "unit": "%"}, {"measurement": "visual damage", "setting": "Setaria viridis; biotype GG2078 (homozygous), 30 g/ha", "value": 60, "unit": "%"}, {"measurement": "visual damage", "setting": "Setaria viridis; biotype GG2078 (homozygous), 60 g/ha", "value": 63, "unit": "%"}, {"measurement": "visual damage", "setting": "Setaria viridis; biotype GG2078 (homozygous), 120 g/ha", "value": 67, "unit": "%"}, {"measurement": "visual damage", "setting": "Setaria viridis; biotype II1781 (homozygous), 15 g/ha", "value": 80, "unit": "%"}, {"measurement": "visual damage", "setting": "Setaria viridis; biotype II1781 (homozygous), 30 g/ha", "value": 100, "unit": "%"}, {"measurement": "visual damage", "setting": "Setaria viridis; biotype II1781 (homozygous), 60 g/ha", "value": 100, "unit": "%"}, {"measurement": "visual damage", "setting": "Setaria viridis; biotype II1781 (homozygous), 120 g/ha", "value": 100, "unit": "%"}, {"measurement": "visual damage", "setting": "Setaria viridis; biotype LL1781 (homozygous), 15 g/ha", "value": 50, "unit": "%"}, {"measurement": "visual damage", "setting": "Setaria viridis; biotype LL1781 (homozygous), 30 g/ha", "value": 60, "unit": "%"}, {"measurement": "visual damage", "setting": "Setaria viridis; biotype LL1781 (homozygous), 60 g/ha", "value": 60, "unit": "%"}, {"measurement": "visual damage", "setting": "Setaria viridis; biotype LL1781 (homozygous), 120 g/ha", "value": 53, "unit": "%"}, {"measurement": "visual damage", "setting": "Setaria viridis; biotype Sensitive, 15 g/ha", "value": 90, "unit": "%"}, {"measurement": "visual damage", "setting": "Setaria viridis; biotype Sensitive, 30 g/ha", "value": 98, "unit": "%"}, {"measurement": "visual damage", "setting": "Setaria viridis; biotype Sensitive, 60 g/ha", "value": 100, "unit": "%"}, {"measurement": "visual damage", "setting": "Setaria viridis; biotype Sensitive, 120 g/ha", "value": 100, "unit": "%"}, {"measurement": "visual damage", "setting": "Lolium multiflorum [1]; biotype CC2027 (homozygous), 15 g/ha, 14 days after application", "value": 53, "unit": "%"}, {"measurement": "visual damage", "setting": "Lolium multiflorum [1]; biotype CC2027 (homozygous), 30 g/ha, 14 days after application", "value": 77, "unit": "%"}, {"measurement": "visual damage", "setting": "Lolium multiflorum [1]; biotype CC2027 (homozygous), 60 g/ha, 14 days after application", "value": 100, "unit": "%"}, {"measurement": "visual damage", "setting": "Lolium multiflorum [1]; biotype CC2027 (homozygous), 120 g/ha, 14 days after application", "value": 100, "unit": "%"}, {"measurement": "visual damage", "setting": "Lolium multiflorum [1]; biotype GG2078 (homozygous), 15 g/ha, 14 days after application", "value": 0, "unit": "%"}, {"measurement": "visual damage", "setting": "Lolium multiflorum [1]; biotype GG2078 (homozygous), 30 g/ha, 14 days after application", "value": 20, "unit": "%"}, {"measurement": "visual damage", "setting": "Lolium multiflorum [1]; biotype GG2078 (homozygous), 60 g/ha, 14 days after application", "value": 20, "unit": "%"}, {"measurement": "visual damage", "setting": "Lolium multiflorum [1]; biotype GG2078 (homozygous), 120 g/ha, 14 days after application", "value": 50, "unit": "%"}, {"measurement": "visual damage", "setting": "Lolium multiflorum [1]; biotype LL1781 (homozygous), 15 g/ha, 14 days after application", "value": 23, "unit": "%"}, {"measurement": "visual damage", "setting": "Lolium multiflorum [1]; biotype LL1781 (homozygous), 30 g/ha, 14 days after application", "value": 37, "unit": "%"}, {"measurement": "visual damage", "setting": "Lolium multiflorum [1]; biotype LL1781 (homozygous), 60 g/ha, 14 days after application", "value": 60, "unit": "%"}, {"measurement": "visual damage", "setting": "Lolium multiflorum [1]; biotype LL1781 (homozygous), 120 g/ha, 14 days after application", "value": 70, "unit": "%"}, {"measurement": "visual damage", "setting": "Lolium multiflorum [1]; biotype NN2041 (homozygous), 15 g/ha, 14 days after application", "value": 70, "unit": "%"}, {"measurement": "visual damage", "setting": "Lolium multiflorum [1]; biotype NN2041 (homozygous), 30 g/ha, 14 days after application", "value": 100, "unit": "%"}, {"measurement": "visual damage", "setting": "Lolium multiflorum [1]; biotype NN2041 (homozygous), 60 g/ha, 14 days after application", "value": 100, "unit": "%"}, {"measurement": "visual damage", "setting": "Lolium multiflorum [1]; biotype NN2041 (homozygous), 120 g/ha, 14 days after application", "value": 100, "unit": "%"}, {"measurement": "visual damage", "setting": "Lolium multiflorum [1]; biotype RR2088 (homozygous), 15 g/ha, 14 days after application", "value": 0, "unit": "%"}, {"measurement": "visual damage", "setting": "Lolium multiflorum [1]; biotype RR2088 (homozygous), 30 g/ha, 14 days after application", "value": 20, "unit": "%"}, {"measurement": "visual damage", "setting": "Lolium multiflorum [1]; biotype RR2088 (homozygous), 60 g/ha, 14 days after application", "value": 60, "unit": "%"}, {"measurement": "visual damage", "setting": "Lolium multiflorum [1]; biotype RR2088 (homozygous), 120 g/ha, 14 days after application", "value": 60, "unit": "%"}, {"measurement": "visual damage", "setting": "Lolium multiflorum [1]; biotype SS1999 (homozygous), 15 g/ha, 21 DAA", "value": 27, "unit": "%"}, {"measurement": "visual damage", "setting": "Lolium multiflorum [1]; biotype SS1999 (homozygous), 30 g/ha, 21 DAA", "value": 98, "unit": "%"}, {"measurement": "visual damage", "setting": "Lolium multiflorum [1]; biotype SS1999 (homozygous), 60 g/ha, 21 DAA", "value": 100, "unit": "%"}, {"measurement": "visual damage", "setting": "Lolium multiflorum [1]; biotype SS1999 (homozygous), 120 g/ha, 21 DAA", "value": 100, "unit": "%"}, {"measurement": "visual damage", "setting": "Lolium multiflorum [1]; biotype Sensitive, 15 g/ha, 14 days after application", "value": 53, "unit": "%"}, {"measurement": "visual damage", "setting": "Lolium multiflorum [1]; biotype Sensitive, 30 g/ha, 14 days after application", "value": 73, "unit": "%"}, {"measurement": "visual damage", "setting": "Lolium multiflorum [1]; biotype Sensitive, 60 g/ha, 14 days after application", "value": 99, "unit": "%"}, {"measurement": "visual damage", "setting": "Lolium multiflorum [1]; biotype Sensitive, 120 g/ha, 14 days after application", "value": 100, "unit": "%"}, {"measurement": "visual damage", "setting": "Lolium multiflorum [2]; biotype C2088R, 15 g/ha", "value": 0, "unit": "%"}, {"measurement": "visual damage", "setting": "Lolium multiflorum [2]; biotype C2088R, 30 g/ha", "value": 13, "unit": "%"}, {"measurement": "visual damage", "setting": "Lolium multiflorum [2]; biotype C2088R, 60 g/ha", "value": 40, "unit": "%"}, {"measurement": "visual damage", "setting": "Lolium multiflorum [2]; biotype C2088R, 120 g/ha", "value": 90, "unit": "%"}, {"measurement": "visual damage", "setting": "Lolium multiflorum [2]; biotype C2088R, 240 g/ha", "value": 100, "unit": "%"}, {"measurement": "visual damage", "setting": "Lolium multiflorum [2]; biotype D2078G, 15 g/ha", "value": 10, "unit": "%"}, {"measurement": "visual damage", "setting": "Lolium multiflorum [2]; biotype D2078G, 30 g/ha", "value": 17, "unit": "%"}, {"measurement": "visual damage", "setting": "Lolium multiflorum [2]; biotype D2078G, 60 g/ha", "value": 27, "unit": "%"}, {"measurement": "visual damage", "setting": "Lolium multiflorum [2]; biotype D2078G, 120 g/ha", "value": 70, "unit": "%"}, {"measurement": "visual damage", "setting": "Lolium multiflorum [2]; biotype D2078G, 240 g/ha", "value": 100, "unit": "%"}, {"measurement": "visual damage", "setting": "Lolium multiflorum [2]; biotype I1781L, 15 g/ha", "value": 23, "unit": "%"}, {"measurement": "visual damage", "setting": "Lolium multiflorum [2]; biotype I1781L, 30 g/ha", "value": 53, "unit": "%"}, {"measurement": "visual damage", "setting": "Lolium multiflorum [2]; biotype I1781L, 60 g/ha", "value": 70, "unit": "%"}, {"measurement": "visual damage", "setting": "Lolium multiflorum [2]; biotype I1781L, 120 g/ha", "value": 100, "unit": "%"}, {"measurement": "visual damage", "setting": "Lolium multiflorum [2]; biotype I1781L, 240 g/ha", "value": 100, "unit": "%"}, {"measurement": "visual damage", "setting": "Lolium multiflorum [2]; biotype Sensitive, 15 g/ha", "value": 100, "unit": "%"}, {"measurement": "visual damage", "setting": "Lolium multiflorum [2]; biotype Sensitive, 30 g/ha", "value": 100, "unit": "%"}, {"measurement": "visual damage", "setting": "Lolium multiflorum [2]; biotype Sensitive, 60 g/ha", "value": 100, "unit": "%"}, {"measurement": "visual damage", "setting": "Lolium multiflorum [2]; biotype Sensitive, 120 g/ha", "value": 100, "unit": "%"}, {"measurement": "visual damage", "setting": "Lolium multiflorum [2]; biotype Sensitive, 240 g/ha", "value": 100, "unit": "%"}, {"measurement": "visual damage", "setting": "Lolium multiflorum [2]; biotype W1999S, 15 g/ha", "value": 27, "unit": "%"}, {"measurement": "visual damage", "setting": "Lolium multiflorum [2]; biotype W1999S, 30 g/ha", "value": 98, "unit": "%"}, {"measurement": "visual damage", "setting": "Lolium multiflorum [2]; biotype W1999S, 60 g/ha", "value": 100, "unit": "%"}, {"measurement": "visual damage", "setting": "Lolium multiflorum [2]; biotype W1999S, 120 g/ha", "value": 100, "unit": "%"}, {"measurement": "visual damage", "setting": "Lolium multiflorum [2]; biotype W1999S, 240 g/ha", "value": 100, "unit": "%"}, {"measurement": "visual damage", "setting": "Lolium multiflorum [2]; biotype W2027C, 15 g/ha", "value": 63, "unit": "%"}, {"measurement": "visual damage", "setting": "Lolium multiflorum [2]; biotype W2027C, 30 g/ha", "value": 100, "unit": "%"}, {"measurement": "visual damage", "setting": "Lolium multiflorum [2]; biotype W2027C, 60 g/ha", "value": 100, "unit": "%"}, {"measurement": "visual damage", "setting": "Lolium multiflorum [2]; biotype W2027C, 120 g/ha", "value": 100, "unit": "%"}, {"measurement": "visual damage", "setting": "Lolium multiflorum [2]; biotype W2027C, 240 g/ha", "value": 100, "unit": "%"}, {"measurement": "visual damage", "setting": "Lolium multiflorum [2]; population LM-NTSR-1 (non-target-site resistance), 15 g/ha", "value": 63, "unit": "%"}, {"measurement": "visual damage", "setting": "Lolium multiflorum [2]; population LM-NTSR-1 (non-target-site resistance), 30 g/ha", "value": 97, "unit": "%"}, {"measurement": "visual damage", "setting": "Lolium multiflorum [2]; population LM-NTSR-1 (non-target-site resistance), 60 g/ha", "value": 100, "unit": "%"}, {"measurement": "visual damage", "setting": "Lolium multiflorum [2]; population LM-NTSR-1 (non-target-site resistance), 120 g/ha", "value": 100, "unit": "%"}, {"measurement": "visual damage", "setting": "Lolium multiflorum [2]; population LM-NTSR-1 (non-target-site resistance), 240 g/ha", "value": 100, "unit": "%"}, {"measurement": "visual damage", "setting": "Lolium multiflorum [2]; population LM-NTSR-2 (non-target-site resistance), 15 g/ha", "value": 3, "unit": "%"}, {"measurement": "visual damage", "setting": "Lolium multiflorum [2]; population LM-NTSR-2 (non-target-site resistance), 30 g/ha", "value": 55, "unit": "%"}, {"measurement": "visual damage", "setting": "Lolium multiflorum [2]; population LM-NTSR-2 (non-target-site resistance), 60 g/ha", "value": 70, "unit": "%"}, {"measurement": "visual damage", "setting": "Lolium multiflorum [2]; population LM-NTSR-2 (non-target-site resistance), 120 g/ha", "value": 75, "unit": "%"}, {"measurement": "visual damage", "setting": "Lolium multiflorum [2]; population LM-NTSR-2 (non-target-site resistance), 240 g/ha", "value": 95, "unit": "%"}]}
